# In patent US20040119048A1, “Process of making aqueous perborate bleach composition” (Unilever Home & Personal Care USA, Divison of Conopco, Inc., priority 2002, published 2004):
# Assay: Iterative determination of perborate solubility in water and polyol/water (visual appearance, pH)
# Format: physicochemical
# Protocol: An iterative process was used to determine the extent of perborate solubilty in water and polyol/water. 1.5 g of Na perborate monohydrate was added either to 100 g of water (Table 1A) or to 90 g water and 10 g sorbitol (70% active) (Table 1B). The mixture was stirred until all of sodium perborate monohydrate was dissolved. A 0.5 g aliquot of sodium perborate monohydrate was then added to the solution while stirring and visually monitored to see if all the added sodium perborate monohydrate dissolves. If the aliquot dissolved, another 0.5 g of sodium perborate monohydrate would be added. This procedure was continued until the added perborate no longer appeared to dissolve.
smiles,measurement,setting,value
"O.O=BO[O-].[Na+] [Sodium Perborate monohydrate, sodium perborate monohydrate]",solubility in water in the presence of polyol,90 g water + 10 g sorbitol (70%),up to 8.5 g
same,increase of perborate solubility by polyol,"aqueous environment, with polyol vs without",about 400%
